In ChEMBL document CHEMBL1201862, “PubChem BioAssay data set” (2004):
One block for each compound: values may come before it. Active and inactive are the calls of the source.

Tests used:
[1] = target: FAD-linked sulfhydryl oxidase ALR (Homo sapiens, UniProt P55789); experiment: ALR-catalysed DTT oxidation blockers – biochemical, H2O2 detection, luminescence, cherry-pick, dose response (AID 493248)
[2] = target: T1, Calpain-2 catalytic subunit (Sus scrofa, UniProt P43367); experiment: m-calpain protease blockers, concentration series – biochemical, fluorogenic peptide substrate, dose response (AID 1420); assay type: functional
T1 sequence (P43367 whole entry): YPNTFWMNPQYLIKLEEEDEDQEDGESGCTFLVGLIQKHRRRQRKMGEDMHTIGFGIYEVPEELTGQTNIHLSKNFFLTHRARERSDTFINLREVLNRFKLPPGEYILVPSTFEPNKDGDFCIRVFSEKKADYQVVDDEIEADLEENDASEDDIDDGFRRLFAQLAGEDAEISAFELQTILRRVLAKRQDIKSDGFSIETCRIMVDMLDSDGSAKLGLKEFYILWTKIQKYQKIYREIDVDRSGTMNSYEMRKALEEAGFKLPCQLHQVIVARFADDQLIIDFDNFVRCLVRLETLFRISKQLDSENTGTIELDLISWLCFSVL

[3] = NIH-3T3 fibroblast cytotoxicity, dose response, cytotoxicity control, cell-based, fluorescence, Alamar Blue, secondary assay (AID 2327); assay type: functional;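 note: NIH-3T3 mouse fibroblasts cultured with fluconazole at 8 µg/mL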
[4] = fluconazole-exposed Candida albicans growth modulators – fluorescence, retest, confirmation (AID 2467); assay type: functional, cell-based
[5] = target: T2, Heat shock factor protein 1 (Mus musculus, UniProt P38532); experiment: enhancement of HSF1-driven luciferase signal – cell-based, NIH3T3, luminescence, dose retest, confirmation (AID 435004); assay type: functional;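 note: stress induced by proteasome inhibitor MG132 added 30 min after compound; luciferase reporter driven by HSF1 response element in NIH3T3 cells; actives raise luminescence as potentiators of the MG132 stress response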
T2 sequence (P38532 whole entry): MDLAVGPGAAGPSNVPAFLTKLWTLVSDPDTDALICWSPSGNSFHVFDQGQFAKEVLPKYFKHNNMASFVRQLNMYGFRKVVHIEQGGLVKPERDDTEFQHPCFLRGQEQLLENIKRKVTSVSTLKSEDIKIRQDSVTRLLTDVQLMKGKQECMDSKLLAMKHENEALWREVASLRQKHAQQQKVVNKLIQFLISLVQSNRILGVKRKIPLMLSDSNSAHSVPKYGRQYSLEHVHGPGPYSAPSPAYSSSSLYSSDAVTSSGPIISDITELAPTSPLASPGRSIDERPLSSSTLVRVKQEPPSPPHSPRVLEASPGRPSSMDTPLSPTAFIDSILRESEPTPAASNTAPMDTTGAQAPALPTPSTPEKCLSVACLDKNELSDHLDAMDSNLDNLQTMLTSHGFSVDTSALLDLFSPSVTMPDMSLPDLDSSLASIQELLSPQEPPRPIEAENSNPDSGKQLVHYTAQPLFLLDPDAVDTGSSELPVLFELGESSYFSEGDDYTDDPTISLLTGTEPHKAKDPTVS

Cytochrome P450 2D6 = Cytochrome P450 2D6 (Homo sapiens, UniProt P10635);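 note: CYP2D6 member of a cytochrome P450 panel assay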
Chain of Cytochrome P450 2D6 (P10635 whole entry): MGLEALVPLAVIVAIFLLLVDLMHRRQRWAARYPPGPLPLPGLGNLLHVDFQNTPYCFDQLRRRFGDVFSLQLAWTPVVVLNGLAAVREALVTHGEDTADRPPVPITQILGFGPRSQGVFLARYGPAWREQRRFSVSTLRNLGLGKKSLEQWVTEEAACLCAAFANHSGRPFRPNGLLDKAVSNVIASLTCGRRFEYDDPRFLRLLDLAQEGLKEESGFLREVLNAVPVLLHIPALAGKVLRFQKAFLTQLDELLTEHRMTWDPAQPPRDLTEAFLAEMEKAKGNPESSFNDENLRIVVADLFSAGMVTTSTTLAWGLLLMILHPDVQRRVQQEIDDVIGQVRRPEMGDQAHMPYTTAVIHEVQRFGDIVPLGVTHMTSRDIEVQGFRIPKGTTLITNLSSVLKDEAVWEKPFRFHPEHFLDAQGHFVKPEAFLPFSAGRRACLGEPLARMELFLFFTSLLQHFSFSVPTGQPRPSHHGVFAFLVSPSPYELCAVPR

[6] = target: T3, Microphthalmia-associated transcription factor (Homo sapiens, UniProt O75030); experiment: reducers of TRPM1 reporter luminescence, concentration series – cell-based, SK-MEL-5, cherry-picked, set 3, MITF inhibitor project, dose response (AID 493073); assay type: functional;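 note: SK-MEL-5 melanoma cells with luciferase driven by the MITF target TRPM1 promoter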
T3 sequence (O75030 whole entry): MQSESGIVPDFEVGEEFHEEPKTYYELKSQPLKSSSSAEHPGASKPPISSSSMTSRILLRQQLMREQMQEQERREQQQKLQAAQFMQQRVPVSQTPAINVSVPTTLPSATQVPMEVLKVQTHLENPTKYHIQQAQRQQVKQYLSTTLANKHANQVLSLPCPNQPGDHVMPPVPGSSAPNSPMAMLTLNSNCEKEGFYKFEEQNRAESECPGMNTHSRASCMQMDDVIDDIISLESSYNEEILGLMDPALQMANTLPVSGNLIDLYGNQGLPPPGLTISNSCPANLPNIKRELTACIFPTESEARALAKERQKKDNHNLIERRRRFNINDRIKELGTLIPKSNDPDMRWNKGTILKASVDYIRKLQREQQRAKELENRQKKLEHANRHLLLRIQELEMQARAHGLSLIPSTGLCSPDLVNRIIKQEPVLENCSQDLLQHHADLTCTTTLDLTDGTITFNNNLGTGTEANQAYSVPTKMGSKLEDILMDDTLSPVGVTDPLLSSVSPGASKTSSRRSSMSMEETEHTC

[7] = target: T4, Zinc finger protein mex-5 (Caenorhabditis elegans, UniProt Q9XUB2); experiment: potency of MEX-5 RNA-binding blockers – biochemical, C. elegans, fluorescence polarization, dose response (AID 1960)
T4 sequence (Q9XUB2 whole entry): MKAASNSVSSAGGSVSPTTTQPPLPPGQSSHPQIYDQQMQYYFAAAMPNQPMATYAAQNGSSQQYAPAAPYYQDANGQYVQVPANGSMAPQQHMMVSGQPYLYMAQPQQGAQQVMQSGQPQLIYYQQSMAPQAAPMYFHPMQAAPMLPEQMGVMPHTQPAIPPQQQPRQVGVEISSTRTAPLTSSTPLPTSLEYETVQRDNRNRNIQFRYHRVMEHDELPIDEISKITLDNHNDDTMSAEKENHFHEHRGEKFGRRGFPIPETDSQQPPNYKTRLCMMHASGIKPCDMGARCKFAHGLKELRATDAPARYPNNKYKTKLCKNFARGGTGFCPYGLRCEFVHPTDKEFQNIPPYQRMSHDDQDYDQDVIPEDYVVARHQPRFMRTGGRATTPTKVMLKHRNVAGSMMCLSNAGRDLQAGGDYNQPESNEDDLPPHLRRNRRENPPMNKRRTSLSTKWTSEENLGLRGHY

[8] = target: T5, RNA-binding protein pos-1 (Caenorhabditis elegans, UniProt G5EF15); experiment: disruptors of C. elegans POS-1 RNA interaction – biochemical, fluorescence polarization, dose response (AID 1964);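 note: purified POS-1 fused to maltose binding protein made in E. coli; potency of compounds blocking POS-1 binding to fluorescent RNA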
T5 sequence (G5EF15 whole entry): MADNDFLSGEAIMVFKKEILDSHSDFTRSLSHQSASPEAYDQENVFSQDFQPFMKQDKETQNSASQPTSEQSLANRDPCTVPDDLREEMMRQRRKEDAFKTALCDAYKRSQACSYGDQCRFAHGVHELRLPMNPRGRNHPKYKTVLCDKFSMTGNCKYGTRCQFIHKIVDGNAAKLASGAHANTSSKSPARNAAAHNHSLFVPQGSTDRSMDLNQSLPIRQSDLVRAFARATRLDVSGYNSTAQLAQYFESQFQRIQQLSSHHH

[9] = Luminescence Cell-Based Dose Retest to Confirm Inhibitors of Cancer Stem Cells. [Related pubchem assays (depositor defined):AID2717, AID2721]; assay type: functional; settings: Homo sapiens
[10] = target: T6, Polyadenylate-binding protein 1 (Homo sapiens, UniProt P11940); experiment: MLLE domain peptide-binding blockers, IC50 – biochemical, fluorescence polarization, FITC-PAM2 peptide, dose response (AID 602259); assay type: functional; settings: read-out: IC50_Mean
T6 sequence (P11940 whole entry, the tested form may be a part): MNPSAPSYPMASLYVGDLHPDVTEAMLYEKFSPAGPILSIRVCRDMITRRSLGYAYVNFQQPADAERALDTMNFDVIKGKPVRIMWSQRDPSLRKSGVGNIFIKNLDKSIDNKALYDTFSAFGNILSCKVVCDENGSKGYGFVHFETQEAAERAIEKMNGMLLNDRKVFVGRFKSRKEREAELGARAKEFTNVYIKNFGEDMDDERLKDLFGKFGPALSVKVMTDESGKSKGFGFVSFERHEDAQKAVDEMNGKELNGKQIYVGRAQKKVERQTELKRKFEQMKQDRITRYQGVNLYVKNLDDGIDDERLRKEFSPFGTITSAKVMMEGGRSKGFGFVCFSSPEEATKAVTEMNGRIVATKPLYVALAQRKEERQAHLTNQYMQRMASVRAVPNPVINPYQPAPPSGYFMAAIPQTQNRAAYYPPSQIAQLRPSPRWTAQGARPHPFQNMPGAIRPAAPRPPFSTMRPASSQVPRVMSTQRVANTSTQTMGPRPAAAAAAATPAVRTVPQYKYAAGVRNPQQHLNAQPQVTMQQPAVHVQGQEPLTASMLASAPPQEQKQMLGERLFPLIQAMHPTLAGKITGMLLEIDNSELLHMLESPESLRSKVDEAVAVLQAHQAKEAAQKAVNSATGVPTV

[11] = target: T6, Polyadenylate-binding protein 1; experiment: MLLE binding blockers, Cy5 peptide tracer – biochemical, fluorescence polarization, Cy5-PAM2 peptide, secondary, miRNA deadenylation inhibitor project, dose response (AID 602260); assay type: functional; settings: read-out: IC50_Mean
cells [12] = assay type: functional, cell-based
cells [13] = assay type: functional, cell-based; remark: listed apart in the source

Chain of FAD-linked sulfhydryl oxidase ALR (P55789 whole entry): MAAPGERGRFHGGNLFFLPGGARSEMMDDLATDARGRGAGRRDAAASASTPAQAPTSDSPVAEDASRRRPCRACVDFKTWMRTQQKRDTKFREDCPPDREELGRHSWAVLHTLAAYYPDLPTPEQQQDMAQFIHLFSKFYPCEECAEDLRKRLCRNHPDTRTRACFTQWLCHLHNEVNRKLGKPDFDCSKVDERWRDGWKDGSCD

Structure (SMILES): O=C(CCS(=O)(=O)Cc1ccccc1)Nc1nnc(C(F)(F)F)s1
EC50 [3]: > 160 µM (inactive)
EC50 [4]: 0.741 µM (active)

Structure (SMILES): COc1ccc(OC)c(NC(=O)CNC(c2ccccc2)c2ccccc2)c1
EC50 [5]: > 260 µM (inactive)

Structure (SMILES): CCCCCNC(=O)C1CCC(Cn2c(=S)[nH]c3ccccc3c2=O)CC1 (stereo not drawn)
EC50 [5]: > 260 µM (inactive)

Structure (SMILES): COc1ccc(N(C(=O)Cn2nnc3ccccc32)C(C(=O)NC(C)(C)C)c2ccc(OC)c(O)c2)cc1 (stereo not drawn)
EC50 [3]: > 150 µM (inactive)
EC50 [4]: 1.62 µM (active)

Structure (SMILES): CC(Oc1cc2oc(=O)c3c(c2cc1Cl)CCCC3)C(=O)NCc1ccncc1 (stereo not drawn)
EC50 [3]: > 150 µM (inactive)
EC50 [4]: > 38 µM (not active)

Structure (SMILES): NC(=O)C1(N2CCCCC2)CCN(Cc2nc(-c3cccs3)no2)CC1
EC50 [7]: > 300 µM (not active)
EC50 [8]: > 300 µM (not active)

Structure (SMILES): COc1ccccc1N1CCN(C(=O)C(CC(C)C)NC(=O)C2CCCCC2)CC1 (stereo not drawn)
EC50 [5]: > 260 µM (inactive)

Structure (SMILES): CS(=O)(=O)c1ccc(Cl)c(C(=O)NCC2CCCCC2)c1
EC50 [5]: > 260 µM (inactive)

Structure (SMILES): CC(=O)Nc1ccc(SC[C@H](C)CN2CC[C@H](C(C)(C)C)CCC2=O)cc1
AC50 [1]: 0.687 µM (active)
AC50 [9]: 1.47 µM (active)
IC50 [10]: > 66 µM (inactive)
IC50 [11]: > 66 µM (inactive)

Structure (SMILES): CC(C)CCOC(=O)C1C(c2ccccc2)C(C(=O)O)C1c1ccccc1 (stereo not drawn)
EC50 [3]: > 160 µM (inconclusive)
EC50 [4]: 4.96 µM (active)

Structure (SMILES): CC1(C)Cc2ccccc2C(N/N=C/c2ccc([N+](=O)[O-])cc2)=N1
EC50 [3]: > 150 µM (inactive)
EC50 [4]: > 38 µM (not active)

Structure (SMILES): CN1C(=O)c2ccccc2NC(=O)[C@]12O[C@@H]2c1cccc(O)c1
EC50 [7]: 35.1 µM (active)
EC50 [8]: 4.13 µM (active)

Structure (SMILES): CCN(CC)S(=O)(=O)c1cccc(C(=O)N/N=C(\C)c2ccc(O)cc2O)c1
AC50 [6]: 3.74 µM (active)
EC50 (cells [12]): 11.7 µM (active)
EC50 (cells [13]): > 350 µM (not active)

Now from value to compound:

AC50 [1]: 1.67 µM (active)
IC50 [2]: 5.8 µM (not active)
Structure (SMILES): COc1ccc(N2CCN(C(c3cccs3)C(C)NS(C)(=O)=O)CC2)cc1 (stereo not drawn)

AC50 (Cytochrome P450 2D6): 15.8 µM (inconclusive)
AC50 [6]: 19.1 µM (active)
Structure (SMILES): Cc1ccc(NCC(=O)N/N=C\c2ccc([N+](=O)[O-])o2)cc1

EC50 [5]: > 260 µM (inactive)
Structure (SMILES): COc1ccc(S(=O)(=O)Nc2cc3c4c(oc3c3ccccc23)CCCC4=O)cc1

EC50 [7]: > 300 µM (not active)
EC50 [8]: 46.5 µM (active)
Structure (SMILES): O=C(O)CCC(=O)N1N=C(c2cccs2)CC1c1cn(-c2ccccc2)nc1-c1ccccc1 (stereo not drawn)

EC50 [7]: > 300 µM (not active)
EC50 [8]: > 300 µM (not active)
Structure (SMILES): N=C(N)NS(=O)(=O)c1ccc(NC(=S)NC(=O)/C=C/c2cccs2)cc1

EC50 [5]: > 260 µM (inactive)
Structure (SMILES): Cc1ccc(CNC(=O)Cn2ccc3ccccc3c2=O)o1

EC50 [5]: > 260 µM (inactive)
Structure (SMILES): O=S(=O)(c1ccc(Oc2ccccc2)cc1)N1CCOCC1

EC50 [7]: 10.9 µM (active)
EC50 [8]: > 300 µM (not active)
Structure (SMILES): CC1=C(C(=O)OCc2ccccc2)C(c2ccccc2[N+](=O)[O-])NC(=O)N1C (stereo not drawn)
